Source: patent US12264139B2, “Aryl sulfonamides as BLT1 antagonists” (Merck Sharp & Dohme LLC, priority 2015, dated 2025)

Each molecule was assayed against T1, human BLT1 receptor (Homo sapiens, UniProt Q15722) (assay: BLT-1 cAMP Assay). Settings: HEK293 cells recombinantly expressing human BLT1; antagonist activity vs forskolin 4 μM and LTB4 2 nM; cAMP (CisBio kit).
T1 construct: expressed in transfected cells; host or cells: HEK293
Type: cell-based
Method: The ability of compounds to antagonize the human BLT1 receptor was determined using a kit to measure changes in intracellular cyclic AMP levels (cAMP dynamic assay kit, Cisbio Cat. No. 62AM4PEC). […] The cell suspension was centrifuged at 200×g for 10 min and then resuspended in fresh assay medium to a density of 2.5×10^5 cells/mL. […] All subsequent liquid additions were performed using a BIORAPTR (FRD; Beckman Coulter). Next, 5 μL of cell suspension was added and incubated for 20 min. at 37° C. and 5% CO2 in a humidified plastic tray.
The levels of cAMP were detected using the CisBio kit following the manufacturer's instructions: cAMP-d2 vial was reconstituted with distilled water and then diluted accordingly with conjugate & lysis buffer. 5 µL of cAMP-d2 working solution was added to all of the wells of the assay plate. cAMP-Cryptate vial was reconstituted with distilled water and then diluted accordingly with conjugate & lysis buffer. 5 µL of cAMP-Cryptate working solution were added to the assay plate. The assay plate was shaken for 3 minutes and incubated at room temperature for 45 minutes, then read on Perkin Elmer Envision. cAMP standard curve and fit data were plotted using a 4 parameter dose response curve fitting algorithm to fit curve. […] After normalization to treated and untreated controls, the percent effect of signal at each compound concentration was calculated. The plot of percent effect versus the log of compound concentration was fit with a 4-parameter concentration response equation to calculate EC50 values.

T1 sequence (Q15722 whole entry): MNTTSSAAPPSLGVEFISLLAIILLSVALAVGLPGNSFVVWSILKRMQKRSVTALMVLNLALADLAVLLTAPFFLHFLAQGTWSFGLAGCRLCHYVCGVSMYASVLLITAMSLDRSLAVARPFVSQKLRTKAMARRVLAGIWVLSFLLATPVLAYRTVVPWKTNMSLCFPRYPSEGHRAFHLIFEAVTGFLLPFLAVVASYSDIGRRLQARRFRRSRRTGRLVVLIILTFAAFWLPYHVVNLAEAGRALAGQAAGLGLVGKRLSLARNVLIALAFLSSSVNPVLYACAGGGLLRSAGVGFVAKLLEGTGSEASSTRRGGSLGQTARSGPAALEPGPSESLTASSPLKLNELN

SMILES | EC50 [nM]
O=S(=O)(Nc1ccccc1-c1ccc2c(c1)OC[C@@H](Cc1ccc(-c3ccccc3)cn1)[C@@H]2O)C(F)(F)F (single isomer, unassigned) [Example 40, (2-((3R,4S or 3S,4R)-4-hydroxy-3-((5-phenylpyridin-2-yl)methyl)chroman-7-yl)phenyl)((trifluoromethyl)sulfonyl)amide] | 18
O=S(=O)(Nc1ccccc1-c1ccc2c(c1)OC[C@@H](Cc1cnc(-c3ccccc3)s1)[C@@H]2O)C(F)(F)F (single isomer, unassigned) [Example 42, 1,1,1-Trifluoro-N-(2-((3S,4R or 3R,4S)-4-hydroxy-3-((2-phenylthiazol-5-yl)methyl)chroman-7-yl)phenyl)methanesulfonamide] | 445
O=S(=O)(Nc1ccccc1-c1ccc2c(c1)OC[C@H](Cc1cnc(-c3ccccc3)s1)[C@H]2O)C(F)(F)F (single isomer, unassigned) [Example 43, 1,1,1-Trifluoro-N-(2-((3R,4S or 3S,4R)-4-hydroxy-3-((2-phenylthiazol-5-yl)methyl)chroman-7-yl)phenyl)methanesulfonamide] | 64
CCn1ccc(C[C@H]2COc3cc(-c4ccccc4NS(=O)(=O)C(F)(F)F)ccc3[C@@H]2O)n1 (single isomer, unassigned) [Example 46, N-(2-((3S,4R or 3R,4S)-3-((1-ethyl-1H-pyrazol-3-yl)methyl)-4-hydroxychroman-7-yl)phenyl)-1,1,1-trifluoromethanesulfonamide] | 157
CCn1ccc(C[C@@H]2COc3cc(-c4ccccc4NS(=O)(=O)C(F)(F)F)ccc3[C@H]2O)n1 (single isomer, unassigned) [Example 47, N-(2-((3R,4S or 3S,4R)-3-((1-ethyl-1H-pyrazol-3-yl)methyl)-4-hydroxychroman-7-yl)phenyl)-1,1,1-trifluoromethanesulfonamide] | 1200
O=S(=O)(Nc1ccccc1-c1ccc2c(c1)OC[C@H](Cc1cscn1)[C@H]2O)C(F)(F)F (single isomer, unassigned) [Example 50, 1,1,1-trifluoro-N-{2-[(3R,4S or 3S,4R)-4-hydroxy-3-(1,3-thiazol-4-ylmethyl)-3,4-dihydro-2H-chromen-7-yl]phenyl}-methanesulfonamide] | 29
O=S(=O)(Nc1ccccc1-c1ccc2c(c1)OC[C@@H](Cc1cscn1)[C@@H]2O)C(F)(F)F (single isomer, unassigned) [Example 51, 1,1,1-trifluoro-N-{2-[(3S,4R or 3R,4S)-4-hydroxy-3-(1,3-thiazol-4-ylmethyl)-3,4-dihydro-2H-chromen-7-yl]phenyl}-methanesulfonamide] | 808
Cc1cnc(C[C@@H]2COc3cc(-c4ccccc4NS(=O)(=O)C(F)(F)F)ccc3[C@H]2O)s1 (single isomer, unassigned) [Example 52, 1,1,1-trifluoro-N-(2-{(3S,4R or 3R,4S)-4-hydroxy-3-[(5-methyl-1,3-thiazol-2-yl)methyl]-3,4-dihydro-2H-chromen-7-yl}phenyl)methanesulfonamide] | 4040
Cc1cnc(C[C@H]2COc3cc(-c4ccccc4NS(=O)(=O)C(F)(F)F)ccc3[C@@H]2O)s1 (single isomer, unassigned) [Example 53, 1,1,1-trifluoro-N-(2-{(3R,4S or 3S,4R)-4-hydroxy-3-[(5-methyl-1,3-thiazol-2-yl)methyl]-3,4-dihydro-2H-chromen-7-yl}phenyl)methanesulfonamide] | 69
Cc1nc(C[C@@H]2COc3cc(-c4ccccc4NS(=O)(=O)C(F)(F)F)ccc3[C@H]2O)cs1 (single isomer, unassigned) [Example 56, 1,1,1-Trifluoro-N-(2-{(3R,4S or 3S,4R)-4-hydroxy-3-[(2-methyl-1,3-thiazol-4-yl)methyl]-3,4-dihydro-2H-chromen-7-yl}phenyl)-methanesulfonamide] | 826
Cc1nc(C[C@H]2COc3cc(-c4ccccc4NS(=O)(=O)C(F)(F)F)ccc3[C@@H]2O)cs1 (single isomer, unassigned) [Example 57, 1,1,1-Trifluoro-N-(2-{(3S,4R or 3R,4S)-4-hydroxy-3-[(2-methyl-1,3-thiazol-4-yl)methyl]-3,4-dihydro-2H-chromen-7-yl}phenyl)-methanesulfonamide] | 10
O=S(=O)(Nc1ccccc1-c1ccc2c(c1)OC[C@H](Cc1ccccc1)[C@H]2O)C(F)(F)F (single isomer, unassigned) [Example 59, N-{2-[(3S,4R or 3R,4S)-3-benzyl-4-hydroxy-3,4-dihydro-2H-chromen-7-yl]phenyl}-1,1,1-trifluoromethanesulfonamide] | 15
Cc1cccnc1C[C@H]1COc2cc(-c3ccccc3NS(=O)(=O)C(F)(F)F)ccc2[C@@H]1O (single isomer, unassigned) [Example 60, 1,1,1-Trifluoro-N-(2-{(3,4-trans)-4-hydroxy-3-[(3-methylpyridin-2-yl)methyl]-3,4-dihydro-2H-chromen-7-yl}phenyl)methanesulfonamide] | 269
O=S(=O)(Nc1ccccc1-c1ccc2c(c1)OC[C@@H](Cc1cccs1)[C@@H]2O)C(F)(F)F (single isomer, unassigned) [Example 61, 1,1,1-trifluoro-N-{2-[(3R,4S or 3S,4R)-4-hydroxy-3-(thiophen-2-ylmethyl)-3,4-dihydro-2H-chromen-7-yl]phenyl}methanesulfonamide] | 1340
O=S(=O)(Nc1ccccc1-c1ccc2c(c1)OC[C@H](Cc1cccs1)[C@H]2O)C(F)(F)F (single isomer, unassigned) [Example 62, 1,1,1-trifluoro-N-{2-[(3S,4R or 3R,4S)-4-hydroxy-3-(thiophen-2-ylmethyl)-3,4-dihydro-2H-chromen-7-yl]phenyl}methanesulfonamide] | 23
Cc1cccc(C[C@@H]2COc3cc(-c4ccccc4NS(=O)(=O)C(F)(F)F)ccc3[C@H]2O)n1 (single isomer, unassigned) [Example 63, 1,1,1-Trifluoro-N-(2-{(3,4-trans)-4-hydroxy-3-[(6-methyl-pyridin-2-yl)methyl]-3,4-dihydro-2H-chromen-7-yl}-phenyl)methanesulfonamide] | 320
O=S(=O)(Nc1ccccc1-c1ccc2c(c1)OC[C@@H](Cc1csc(-c3ccccc3)n1)[C@@H]2O)C(F)(F)F (single isomer, unassigned) [Example 64, 1,1,1-Trifluoro-N-(2-((3R,4S or 3S,4R)-4-hydroxy-3-((2-phenylthiazol-4-yl)-methyl)chroman-7-yl)-phenyl)methanesulfonamide] | 971
O=S(=O)(Nc1ccccc1-c1ccc2c(c1)OC[C@H](Cc1csc(-c3ccccc3)n1)[C@H]2O)C(F)(F)F (single isomer, unassigned) [Example 65, 1,1,1-Trifluoro-N-(2-((3S,4R or 3R,4S)-4-hydroxy-3-((2-phenylthiazol-4-yl)-methyl)chroman-7-yl)-phenyl)methanesulfonamide] | 47
Cn1nccc1C[C@@H]1COc2cc(-c3ccccc3NS(=O)(=O)C(F)(F)F)ccc2[C@H]1O (single isomer, unassigned) [Example 66, 1,1,1-trifluoro-N-(2-{(3,4-trans)-4-hydroxy-3-[(1-methyl-1H-pyrazol-5-yl)methyl]-3,4-di-hydro-2H-chromen-7-yl}-phenyl)methanesulfonamide] | 210
O=S(=O)(Nc1ccccc1-c1ccc2c(c1)OC[C@@H](Cc1ccc(-c3ccccc3)cc1)[C@@H]2O)C(F)(F)F (single isomer, unassigned) [Example 67, N-{2-[(3S,4R or 3R,4S)-3-(biphenyl-4-ylmethyl)-4-hydroxy-3,4-dihydro-2H-chromen-7-yl]phenyl}-1,1,1-trifluoromethanesulfonamide] | 48
O=S(=O)(Nc1ccccc1-c1ccc2c(c1)OC[C@H](Cc1ccc(-c3ccccc3)cc1)[C@H]2O)C(F)(F)F (single isomer, unassigned) [Example 68, N-{2-[(3R,4S or 3S,4R)-3-(biphenyl-4-ylmethyl)-4-hydroxy-3,4-dihydro-2H-chromen-7-yl]phenyl}-1,1,1-trifluoromethanesulfonamide] | 5.3
O=S(=O)(Nc1ccccc1-c1ccc2c(c1)OC[C@@H](Cc1ncccc1F)[C@@H]2O)C(F)(F)F (single isomer, unassigned) [Example 69, 1,1,1-Trifluoro-N-(2-{(3,4-trans)-3-[(3-fluoropyridin-2-yl)methyl]-4-hydroxy-3,4-dihydro-2H-chromen-7-yl}phenyl)methanesulfonamide] | 30
Cc1nnc(C[C@@H]2COc3cc(-c4ccccc4NS(=O)(=O)C(F)(F)F)ccc3[C@H]2O)s1 (single isomer, unassigned) [Example 70, 1,1,1-Trifluoro-N-(2-{(3,4-trans)-4-hydroxy-3-[(5-methyl-1,3,4-thiadiazol-2-yl)methyl]-3,4-dihydro-2H-chromen-7-yl}phenyl)-methanesulfonamide] | 261
O=S(=O)(Nc1ccccc1-c1ccc2c(c1)OC[C@@H](Cc1cc[nH]n1)[C@@H]2O)C(F)(F)F (single isomer, unassigned) [Example 71, 1,1,1-trifluoro-N-{2-[(3,4-trans)-4-hydroxy-3-(1H-pyrazol-3-ylmethyl)-3,4-dihydro-2H-chromen-7-yl]phenyl}-methanesulfonamide] | 125
